One data set has as its system U-87 MG. In words: Antiproliferative activity against human U-87 MG cells measured after 72 hrs by CCK-8 cells. Format: functional, cell-based, U-87MG ATCC.
A further data set deals with A549. In words: Antiproliferative activity against human A549 cells measured after 72 hrs by CCK-8 cells. The following applies: A549, 72 h. The format is functional, cell-based.
Data set [1] concerns HCT-116. In words: Antiproliferative activity against human HCT116 cells measured after 72 hrs by CCK-8 cells. To be noted: HCT-116, 72 h. Format: functional, cell-based.
For data set [2], the system named is HCT-116. In words: Antimigratory activity against human HCT116 cells assessed as wound healing rate incubated for 24 hrs by wound healing assay. Format: functional, cell-based.
Data set [3] relates to HCT-116. The experiment in a line: Induction of apoptosis in human HCT116 cells assessed as accumulation of cells at G1 phase at 0.02 uM measured after 48 hrs by Annexin V-PI Flow cytometry assay (reference value: 51.12%). The format is functional. A general note: A flow cytometer gives signals particle by particle.
In data set [4] the test system is HCT-116. The experiment in a line: Induction of apoptosis in human HCT116 cells assessed as accumulation of cells at G1 phase at 0.05 uM measured after 48 hrs by Annexin V-PI Flow cytometry assay (reference value: 51.12%). Format: functional.
In data set [5] the test system is HCT-116. In words: Induction of apoptosis in human HCT116 cells assessed as accumulation of cells at G2 phase at 0.05 uM measured after 48 hrs by Annexin V-PI Flow cytometry assay (reference value: 17.63%). Format: functional.
Data set [6] relates to HCT-116. The experiment in a line: Induction of apoptosis in human HCT116 cells assessed as accumulation of cells at S phase at 0.1 uM measured after 48 hrs by Annexin V-PI Flow cytometry assay (reference value: 31.25%). The format is functional.
The test system of data set [7] is HCT-116. In words: Induction of apoptosis in human HCT116 cells assessed as accumulation of cells at G1 phase at 0.2 uM measured after 48 hrs by Annexin V-PI Flow cytometry assay (reference value: 51.12%). Format: functional.
In data set [8] the test system is HCT-116. In words: Induction of apoptosis in human HCT116 cells assessed as accumulation of cells at S phase at 0.2 uM measured after 48 hrs by Annexin V-PI Flow cytometry assay (reference value: 31.25%). Format: functional.
The subject of data set [9] is HCT-116. In words: Pro-oxidant effect in human HCT-116 cells assessed as induction of reactive oxygen level (ROS) measured after 12 hrs by flow cytometry using the 2',7'-dichloro-fluorescein diacetate (DCFH-DA) fluorescent probe assay. The format is functional, cell-based. The following applies: dose 0.02-0.5 µM.
In data set [10] the test system is HCT-116. The experiment in a line: Pro-oxidant effect in human HCT-116 cells assessed as induction of reactive oxygen level (ROS) measured after 12 hrs by 2',7'-dichloro-fluorescein diacetate (DCFH-DA) fluorescent probe based flow cytometry. The format is functional, cell-based. The following applies: dose 0.02-0.5 µM.
Data set [11] addresses T1, DNA topoisomerase 1 (Homo sapiens) (UniProt P11387).
T1 sequence (whole entry): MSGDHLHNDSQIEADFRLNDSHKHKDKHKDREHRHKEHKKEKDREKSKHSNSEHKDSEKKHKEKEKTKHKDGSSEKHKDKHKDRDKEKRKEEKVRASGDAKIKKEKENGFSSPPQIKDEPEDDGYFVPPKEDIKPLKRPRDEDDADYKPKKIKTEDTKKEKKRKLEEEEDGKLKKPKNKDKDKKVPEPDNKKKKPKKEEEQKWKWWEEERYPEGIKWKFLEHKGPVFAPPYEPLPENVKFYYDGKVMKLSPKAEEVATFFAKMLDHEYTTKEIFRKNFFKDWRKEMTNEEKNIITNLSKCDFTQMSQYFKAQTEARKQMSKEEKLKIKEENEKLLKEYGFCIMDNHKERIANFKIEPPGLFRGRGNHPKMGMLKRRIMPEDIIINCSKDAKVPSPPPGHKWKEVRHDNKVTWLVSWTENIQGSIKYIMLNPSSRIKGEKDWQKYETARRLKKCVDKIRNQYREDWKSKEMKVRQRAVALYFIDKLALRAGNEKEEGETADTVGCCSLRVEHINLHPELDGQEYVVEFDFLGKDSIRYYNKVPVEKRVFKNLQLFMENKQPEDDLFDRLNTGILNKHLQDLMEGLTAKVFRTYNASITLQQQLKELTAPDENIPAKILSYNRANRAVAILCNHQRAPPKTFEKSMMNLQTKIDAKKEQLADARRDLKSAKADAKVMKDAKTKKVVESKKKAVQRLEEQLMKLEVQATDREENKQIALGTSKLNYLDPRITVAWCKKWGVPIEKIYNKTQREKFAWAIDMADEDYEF
In words: Inhibition of DNA topoisomerase I (unknown origin) mediated supercoiled DNA relaxation activity at 100 uM by agarose gel electrophoresis analysis.

Data set [12] concerns HCT-116. In words: Induction of apoptosis in 100 pmol GLUT1 siRNA treated human HCT-116 cells assessed as late apoptotic cells at 50 nM incubated for 48 hrs (reference value: 17.13%). Format: functional.
In data set [13] the test system is HCT-116. In words: Antiproliferative activity against human HCT116 cells in presence of 10 uM phloretin measured after 72 hrs by CCK-8 assay. Format: functional, cell-based. The following applies: HCT-116, 72 h. In general terms: Formazan colour is commonly taken as a measure of viable cells.
Data set [14] can be described thus: Tmax in mouse at 10 mg/kg, ip measured upto 24 hrs. The following applies: in vivo. Format: ADME, organism-based.
A short description of data set [15]: Cmax in mouse at 10 mg/kg, ip measured upto 24 hrs. Format: ADME, organism-based. To be noted: in vivo.
A short description of data set [16]: AUC (0 to t)in mouse at 10 mg/kg, ip measured upto 24 hrs. Format: ADME, organism-based. The following applies: in vivo.
Data set [17] in a line: AUC (0 to t)in mouse at 20 mg/kg, ip measured upto 24 hrs. Format: ADME, organism-based. To be noted: in vivo.
The nature of data set [18]: Plasma protein binding mouse plasma at 2 uM. The format is ADME, cell-free. To be noted: read-out: PPB (converted).
Data set [19] is described as follows: Unbound drug concentration in mouse plasma at 2 uM. Format: ADME, cell-free.

Calls of active or inactive are those of the source. The calls are words filed in the database; no cut-off is given here.

The values below come from ChEMBL document CHEMBL5543158, “Design of Evodiamine-Glucose Conjugates with Improved In Vivo Antitumor Activity” (J Med Chem, 2024).

The term IC50 denotes the midpoint of a concentration-inhibition curve. One may read the Tmax as the time at which the peak concentration occurs. In general, Cmax refers to the peak of the concentration-time curve. For orientation: AUC(0-t) means exposure summed from dosing to a finite time, without extrapolation to infinity. A low value points to low exposure.

`CN1c2ccc(F)cc2C(=O)N2CCc3c([nH]c4ccc(O[C@@H]5O[C@H](CO)[C@@H](O)[C@H](O)[C@H]5O)cc34)[C@H]21`: the IC50 with U-87 MG worked out at 64 nM; in the data set on A549, 64 nM; with HCT-116 [1] it was 64 nM; in the data set with HCT-116 [13], 430 nM. The Activity entry in the data set with HCT-116 [2] is “Dose-Dependent Effect”; with HCT-116 [3], 43.27%; in the data set with HCT-116 [4], 10.48%; with HCT-116 [5], 57.53%; in the data set on HCT-116 [6], 9.44%; in the data set on HCT-116 [7] it was 1.56%. Besides, the Activity was 5.6% in the data set on HCT-116 [8], “Dose-Dependent Effect” in the data set with HCT-116 [9], “Dose-Dependent Effect” in the data set with HCT-116 [10] and 21.75% in the data set with HCT-116 [12]. Besides, in data set [11], the inhibition result is “Active”. Also, the Tmax in data set [14] worked out at 30 min. Also, the Cmax in [15] was 4630 ng/mL. Besides, the AUC(0-t) at 24 h in [16] came to 4010 ng·h/mL; in data set [17] it was 8430 ng·h/mL. Further, the fraction unbound at 2 µM in data set [18] is 0.101. In addition, the “Cp(f)” value in data set [19] was determined as 85.1 ng/mL.
